In ChEMBL document CHEMBL1201862, “PubChem BioAssay data set” (2004):
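The compound was tested at five concentrations on cells cultured in 96-well plates, with a 48-hour exposure period. At the GI50, growth is halved.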 The source made the active and inactive calls. Cut-off read from the data, not from the text of the source: active = GI50 up to about 1.1 µM and inactive = higher.

Assays:
Assay in all cases: inhibition of tumour cell growth, NCI panel, 48 h
786-0 = test system: 786-0
ACHN = test system: ACHN
COLO 205 = test system: COLO 205
EKVX = test system: EKVX
HL-60 = test system: HL-60
HT-29 = test system: HT-29
Hs-578T = test system: Hs-578T
K562 = test system: K562
KM12 = test system: KM12
M14 = test system: M14
NCI-H226 = test system: NCI-H226
OVCAR-3 = test system: OVCAR-3
PC-3 = test system: PC-3
SK-MEL-2 = test system: SK-MEL-2
SK-MEL-5 = test system: SK-MEL-5
SN12C = test system: SN12C
SNB-75 = test system: SNB-75
T47D = test system: T47D
TK-10 = test system: TK-10
UACC-257 = test system: UACC-257

| Structure (SMILES) | GI50 (786-0) | GI50 (ACHN) | GI50 (COLO 205) | GI50 (EKVX) | GI50 (HL-60) | GI50 (HT-29) | GI50 (Hs-578T) | GI50 (K562) | GI50 (KM12) | GI50 (M14) | GI50 (NCI-H226) | GI50 (OVCAR-3) | GI50 (PC-3) | GI50 (SK-MEL-2) | GI50 (SK-MEL-5) | GI50 (SN12C) | GI50 (SNB-75) | GI50 (T47D) | GI50 (TK-10) | GI50 (UACC-257) |
| --- | --- | --- | --- | --- | --- | --- | --- | --- | --- | --- | --- | --- | --- | --- | --- | --- | --- | --- | --- | --- |
| [O-][S+]1SC(=S)C2C=CC=CC21 (stereo not given) | > 100 µM (inactive) | > 100 µM (inactive) | > 100 µM (inactive) | 57.5 µM (inactive) | 1.62 µM (inactive) | 45.3 µM (inactive) | 84.3 µM (inactive) | > 100 µM (inactive) | > 100 µM (inactive) | 23.2 µM (inactive) | 59.6 µM (inactive) | > 100 µM (inactive) | > 100 µM (inactive) | > 100 µM (inactive) | 29.4 µM (inactive) | > 100 µM (inactive) | 74 µM (inactive) | > 100 µM (inactive) | > 100 µM (inactive) | 75.5 µM (inactive) |
| O=C(NNC(=O)c1ccccc1SSc1ccccc1C(=O)NNC(=O)c1ccccc1S)c1ccccc1S | 11.4 µM (inactive) | 19.3 µM (inactive) | 36.4 µM (inactive) | 15 µM (inactive) | 1.73 µM (inactive) | 30.3 µM (inactive) | 0.404 µM (active) | 11.3 µM (inactive) | 30.5 µM (inactive) | 17.7 µM (inactive) | 42.4 µM (inactive) | 31 µM (inactive) | 24.6 µM (inactive) | 23.7 µM (inactive) | 39.7 µM (inactive) | 18.5 µM (inactive) | 11.7 µM (inactive) | 9.16 µM (inactive) | 51.8 µM (inactive) | 27.7 µM (inactive) |
| CC1=CC[C@H](C(C)C)C(C(O)[C@@H](C)O[Si](c2ccccc2)(c2ccccc2)C(C)(C)C)C1=O (stereo not given in full) | 15 µM (inactive) | 15.6 µM (inactive) | 17.2 µM (inactive) | 13.3 µM (inactive) | 16.9 µM (inactive) | 11.9 µM (inactive) | 28 µM (inactive) | 9.93 µM (inactive) | 18.5 µM (inactive) | 15.3 µM (inactive) | 20 µM (inactive) | 17 µM (inactive) | 14 µM (inactive) | 15.1 µM (inactive) | 16.2 µM (inactive) | 17.9 µM (inactive) | 23 µM (inactive) | 13.2 µM (inactive) | 15.7 µM (inactive) | 12.1 µM (inactive) |
| CC(=O)NNC1=NN(C(C)=O)C2(S1)C(=O)Nc1ccc(Br)cc12 (stereo not given) | > 100 µM (inactive) | > 100 µM (inactive) | > 10 µM (inactive) | > 100 µM (inactive) | > 100 µM (inactive) | > 100 µM (inactive) | > 100 µM (inactive) | > 100 µM (inactive) | > 100 µM (inactive) | > 100 µM (inactive) | > 100 µM (inactive) | > 100 µM (inactive) | > 100 µM (inactive) | > 100 µM (inactive) | > 100 µM (inactive) | > 100 µM (inactive) | > 100 µM (inactive) | 22 µM (inactive) | > 100 µM (inactive) | > 100 µM (inactive) |
| Clc1ccc(-c2ccc(-c3nn4c(CNc5ccccc5)nnc4s3)o2)c(Cl)c1 | > 100 µM (inactive) | > 100 µM (inactive) | 28 µM (inactive) | 41.5 µM (inactive) | 44.3 µM (inactive) | 40.1 µM (inactive) | > 100 µM (inactive) | 43.7 µM (inactive) | 60 µM (inactive) | 93.3 µM (inactive) | 97.3 µM (inactive) | 45.2 µM (inactive) | 54.2 µM (inactive) | 90.4 µM (inactive) | 33.4 µM (inactive) | > 100 µM (inactive) | 50.7 µM (inactive) | 13.5 µM (inactive) | > 100 µM (inactive) | 53.1 µM (inactive) |
| CC(C)(C)c1cc(OCc2nnc3sc(Cc4ccccc4)nn23)c(Cl)cc1OCc1nnc2sc(Cc3ccccc3)nn12 | 17.3 µM (inactive) | 24.9 µM (inactive) | 21.6 µM (inactive) | 27.3 µM (inactive) | 23.8 µM (inactive) | 22.1 µM (inactive) | > 100 µM (inactive) | 14.5 µM (inactive) | 18.8 µM (inactive) | 29 µM (inactive) | > 100 µM (inactive) | 30.7 µM (inactive) | 30.1 µM (inactive) | 37.8 µM (inactive) | 15.3 µM (inactive) | 44.6 µM (inactive) | 15.3 µM (inactive) | 9.59 µM (inactive) | 30.1 µM (inactive) | 21.3 µM (inactive) |
| O=C(O)C1CC(c2ccccc2)=NN1c1ccccc1 (stereo not given) | 56.9 µM (inactive) | 91.6 µM (inactive) | 50.9 µM (inactive) | 24 µM (inactive) | 89.7 µM (inactive) | 34.2 µM (inactive) | 25.4 µM (inactive) | 47.5 µM (inactive) | 42.9 µM (inactive) | 75 µM (inactive) | 36.8 µM (inactive) | 42 µM (inactive) | 41 µM (inactive) | 69.5 µM (inactive) | 34.4 µM (inactive) | > 100 µM (inactive) | > 100 µM (inactive) | 52 µM (inactive) | 64 µM (inactive) | 51.9 µM (inactive) |
| COc1cc(C2c3cc4c(cc3OC(N3CCNCC3)C2C)OCO4)cc(OC)c1OC (stereo not given) | 0.746 µM (active) | 1.75 µM (inactive) | 0.416 µM (active) | 6.38 µM (inactive) | 0.288 µM (active) | 0.387 µM (active) | 0.17 µM (active) | 0.413 µM (active) | 0.441 µM (active) | 0.873 µM (active) | 1.83 µM (inactive) | 0.204 µM (active) | 0.456 µM (active) | 1 µM (active) | 0.38 µM (active) | 2.59 µM (inactive) | 0.262 µM (active) | 0.979 µM (active) | 20.7 µM (inactive) | 3.75 µM (inactive) |
| COc1cc(NC=C2C(=O)OC(C)(C)OC2=O)c(OC)c(C)c1OC | > 100 µM (inactive) | > 100 µM (inactive) | > 100 µM (inactive) | > 100 µM (inactive) | > 100 µM (inactive) | > 100 µM (inactive) | > 100 µM (inactive) | > 100 µM (inactive) | > 100 µM (inactive) | > 100 µM (inactive) | > 100 µM (inactive) | > 100 µM (inactive) | > 100 µM (inactive) | > 100 µM (inactive) | > 100 µM (inactive) | > 100 µM (inactive) | > 88.3 µM (inactive) | > 100 µM (inactive) | > 100 µM (inactive) | > 100 µM (inactive) |
| COc1ccc(S(=O)(=O)O)cc1NS(=O)(=O)c1ccc(C)cc1 | > 100 µM (inactive) | > 100 µM (inactive) | > 100 µM (inactive) | > 100 µM (inactive) | > 100 µM (inactive) | > 100 µM (inactive) | > 100 µM (inactive) | > 100 µM (inactive) | > 100 µM (inactive) | > 100 µM (inactive) | > 100 µM (inactive) | > 100 µM (inactive) | > 100 µM (inactive) | > 100 µM (inactive) | > 100 µM (inactive) | > 100 µM (inactive) | > 100 µM (inactive) | > 100 µM (inactive) | > 100 µM (inactive) | > 100 µM (inactive) |
| COc1ccc2oc(=O)c(CC=C(C)C)c(O)c2c1C | > 100 µM (inactive) | > 100 µM (inactive) | > 100 µM (inactive) | > 100 µM (inactive) | > 100 µM (inactive) | > 100 µM (inactive) | > 100 µM (inactive) | > 100 µM (inactive) | > 100 µM (inactive) | > 100 µM (inactive) | > 100 µM (inactive) | > 100 µM (inactive) | > 100 µM (inactive) | > 100 µM (inactive) | > 100 µM (inactive) | > 100 µM (inactive) | > 100 µM (inactive) | > 100 µM (inactive) | > 100 µM (inactive) | > 100 µM (inactive) |
| O=c1[nH]c2cc(C(F)(F)F)ccc2nc1CBr | 6.62 µM (inactive) | 7.19 µM (inactive) | 8.02 µM (inactive) | 15.8 µM (inactive) | 2.69 µM (inactive) | 11.4 µM (inactive) | 22 µM (inactive) | 5.73 µM (inactive) | 14.9 µM (inactive) | 8.3 µM (inactive) | 7.87 µM (inactive) | 9.77 µM (inactive) | 13.1 µM (inactive) | 12.2 µM (inactive) | 9.59 µM (inactive) | 9.31 µM (inactive) | 16.6 µM (inactive) | 16 µM (inactive) | 13.9 µM (inactive) | 14.7 µM (inactive) |
